# Patent publication US11420947B2, “(S)-n-hydroxy-2-(2-(4-methoxyphenyl)butanamido)thiazole-5-carboxamide and pharmaceutically acceptable salts thereof” (TRANSLATIONAL DRUG DEVELOPMENT, LLC, priority 2018, dated 2022)
# What was measured:
# HDAC5 = molecular target: T1, HDAC5 (Homo sapiens, UniProt Q9UQL6); assay: Inhibition of HDAC enzymes, 12-point concentration-response; type: biochemical
# T1 construct: purchased BPS 50045
# Procedure: (§1) Compounds were tested in a 12-point concentration-response format against 11 HDAC enzymes as outlined in Table 2A. Test compounds were diluted in 100% DMSO using 3-fold dilution steps. The final compound concentration in the assay ranged from 100 μM to 0.565 nM or as requested. Compounds were tested in a single well for each dilution, and the final concentration of DMSO in all assays was kept at 1%. Reference compounds were tested in an identical manner.
# HDAC8 = molecular target: T2, HDAC8 (Homo sapiens, UniProt Q9BY41); assay: as above; type: biochemical
# T2 construct: purchased BPS 50008
# T2 sequence (Q9BY41 whole entry): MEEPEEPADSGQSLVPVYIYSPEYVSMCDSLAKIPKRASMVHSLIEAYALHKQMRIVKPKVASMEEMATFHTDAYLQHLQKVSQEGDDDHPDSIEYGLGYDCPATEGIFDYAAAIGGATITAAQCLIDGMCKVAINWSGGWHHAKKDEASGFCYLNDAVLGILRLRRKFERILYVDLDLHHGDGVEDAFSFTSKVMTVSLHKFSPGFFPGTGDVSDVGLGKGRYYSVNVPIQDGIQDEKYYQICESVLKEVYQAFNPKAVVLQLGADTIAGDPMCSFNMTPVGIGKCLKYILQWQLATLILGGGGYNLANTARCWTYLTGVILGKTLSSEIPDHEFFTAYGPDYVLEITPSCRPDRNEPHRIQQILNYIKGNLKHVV
# Procedure: as §1
# [1] = Tumor uptake and retention (FIG. 2); type: in vivo
# Excerpt: Volume of distribution is one of the most important pharmacokinetic properties of a drug candidate and for an anticancer drug can result in increased drug distribution to the tumor.
# T1 sequence (Q9UQL6 whole entry): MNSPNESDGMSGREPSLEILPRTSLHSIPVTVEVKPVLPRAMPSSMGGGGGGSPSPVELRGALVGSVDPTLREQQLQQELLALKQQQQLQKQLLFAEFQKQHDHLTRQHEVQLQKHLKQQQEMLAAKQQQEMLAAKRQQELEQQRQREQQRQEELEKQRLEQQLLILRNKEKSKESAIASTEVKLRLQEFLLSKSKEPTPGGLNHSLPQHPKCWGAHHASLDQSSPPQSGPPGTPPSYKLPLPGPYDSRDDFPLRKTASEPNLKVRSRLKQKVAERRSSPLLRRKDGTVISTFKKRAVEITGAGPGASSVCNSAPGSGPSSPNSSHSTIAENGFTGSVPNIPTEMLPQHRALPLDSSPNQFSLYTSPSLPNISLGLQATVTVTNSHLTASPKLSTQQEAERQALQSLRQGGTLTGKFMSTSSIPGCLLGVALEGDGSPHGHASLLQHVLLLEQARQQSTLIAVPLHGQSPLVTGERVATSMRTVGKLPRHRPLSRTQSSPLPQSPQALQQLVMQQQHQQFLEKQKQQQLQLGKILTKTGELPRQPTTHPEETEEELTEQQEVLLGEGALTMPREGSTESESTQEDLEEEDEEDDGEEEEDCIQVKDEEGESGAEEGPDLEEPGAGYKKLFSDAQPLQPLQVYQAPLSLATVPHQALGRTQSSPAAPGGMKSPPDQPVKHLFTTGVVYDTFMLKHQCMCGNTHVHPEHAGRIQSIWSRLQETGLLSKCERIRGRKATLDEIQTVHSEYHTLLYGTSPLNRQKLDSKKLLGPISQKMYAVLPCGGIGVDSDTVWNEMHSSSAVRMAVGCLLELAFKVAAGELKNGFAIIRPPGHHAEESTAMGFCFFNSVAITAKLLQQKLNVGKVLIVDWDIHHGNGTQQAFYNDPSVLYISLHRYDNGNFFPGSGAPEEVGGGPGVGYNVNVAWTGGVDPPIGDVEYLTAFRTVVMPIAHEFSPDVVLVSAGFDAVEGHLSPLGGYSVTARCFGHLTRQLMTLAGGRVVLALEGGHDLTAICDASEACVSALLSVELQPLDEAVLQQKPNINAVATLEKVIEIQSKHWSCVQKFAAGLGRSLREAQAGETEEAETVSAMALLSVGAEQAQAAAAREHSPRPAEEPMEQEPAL
SMILES,"Fold (1b/1a) (HDAC5; ratio of IC50, HDAC5)","Fold (1b/1a) (HDAC8; ratio of IC50, HDAC8)",tumor uptake and retention [1],IC50 (HDAC5; HDAC5) [µM],IC50 (HDAC8; HDAC8) [µM]
"CC[C@H](C(=O)Nc1ncc(C(=O)NO)s1)c1ccc(OC)cc1 [#1a, (S)—N-hydroxy-2-(2-(4-methoxyphenyl)butanamido)thiazole-5-carboxamide]",1.4,3.1,preferential and significant tumor uptake and retention,–,–
"CC[C@@H](C(=O)Nc1ncc(C(=O)NO)s1)c1ccc(OC)cc1 [#1b, (R)—N-hydroxy-2-(2-(4-methoxyphenyl)butanamido)thiazole-5-carboxamide]",–,–,–,0.1,0.416
